Measurements taken from patent US11730836B2, “Synergistic cancer treatment” (priority 2018, dated 2023).

System: CAPAN-1 xenografts
Experiment: CAPAN-1 xenografts, BRCA 2 deficient (−/−) compared with not deficient (+/+): single dose PLX038A or irinotecan, tumor volume
Type: in vivo, mice
Conditions: irinotecan 137 μg/kg single i.p.; FIGS. 4B vs 4C
Method: Female NCr nude mice (N CrTac:NCr-Foxnt1^nu; ˜6-7 weeks old) from Taconic Bioscience (Cambridge City, Ind.) were housed at the UCSF Preclinical Therapeutics Core vivarium (San Francisco, Calif.). All animal studies were carried out in accordance with UCSF Institutional Animal Care and Use Committee. Tumor xenografts were established by subcutaneous injection with MX-1 tumor cells (2×10^6 cells in 100 μl of serum free medium mixed 1:1 with Matrigel) into the right flank of female NCr nude mice.
Groups (N=4-5/group) were dosed when the group average reached 100-200 mm^3 in size. […] For groups receiving the combination, daily BMN673 dosing began on the same day (FIG. 3A) or after a 4-day delay (FIG. 3B) after dosing PLX038A. Tumor volumes (caliper measurement: 0.5×(length×width^2)) and body weights were measured twice weekly. When vehicle control tumors reached ˜3000 mm^3 in size, mice were treated with the combination of a single dose of PLX038A (15 μmol/kg) and daily BMN673 (0.4 μmol/kg) combination with no delay between dosing (FIG. 3A).
MX-1 cells are BRCA 1 deficient and CAPAN-1 cells are supplied as either BRCA 2 deficient (−/−) or not deficient (+/+).

CCc1c2c(nc3ccc(OC(=O)N4CCC(N5CCCCC5)CC4)cc13)-c1cc3c(c(=O)n1C2)COC(=O)[C@]3(O)CC [irinotecan]
effectiveness in BRCA 2 deficient vs non-deficient cells, irinotecan: enhanced
